# Data from US5763404A, “Methods for using LHRH antagonists with low histamine release” (priority 1995, dated 1998).
# Starred links: 1 amine or outer side, 2 acyl side, 3 side chain; linkers in the order of their positions; H or OH if unused. Non-standard residues stand in square brackets, D forms with d. Residues, ends and D or L forms follow the SMILES beside them. *: point of attachment. dAla(cis-4-NHCOPyz-cHex) = N[C@H](C[C@H]1CC[C@@H](NC(=O)c2cnccn2)CC1)C(=O)O; X1 = O=C(N[C@H]1CC[C@@H](C[C@@H](N[*:1])C(=O)[*:2])CC1)c1ccccn1; X4 = O=C(N[C@H]1CC[C@@H](C[C@@H](N[*:1])C(=O)[*:2])CC1)c1cccnc1; X3 = O=C(N[C@H]1CC[C@H](C[C@@H](N[*:1])C(=O)[*:2])CC1)c1cnccn1; X6 = O=C(N[C@H]1CC[C@H](C[C@@H](N[*:1])C(=O)[*:2])CC1)c1ccccn1; X7 = O=C(N[C@H]1CC[C@H](C[C@@H](N[*:1])C(=O)[*:2])CC1)c1cccnc1; dPhe(4-Cl) = N[C@H](Cc1ccc(Cl)cc1)C(=O)O; d2Nal = N[C@H](Cc1ccc2ccccc2c1)C(=O)O; Lys(iPr) = CC(C)NCCCC[C@H](N)C(=O)O; Lys(Me2) = CN(C)CCCC[C@H](N)C(=O)O; Orn(iPr) = CC(C)NCCC[C@H](N)C(=O)O; aIle = CC[C@@H](C)[C@H](N)C(=O)O; d3Pal = N[C@H](Cc1cccnc1)C(=O)O; Nicotinoyl = O=C(c1cccnc1)*; Picolinoyl = O=C(c1ccccn1)*
# Test system: anaesthesized rats
# Assay: wheal test, intradermal injection
# Assay type: in vivo, rat
# Parameters: Wheal (wheal response): unit not given here
# Settings: 10 ug peptide intradermally
# Experimental: The antiovulatory activity, AOA, in rats was determined as described by Humphries et al. (12). Antiovulation assays were performed by counting, on estrus, the number of ova shed by 4-day cycling rats after a single sc injection of the LH-RH analogue in corn oil was administered between 12 and 12:30 p.m. on […]. The control rats received 0.3 mL of the vehicle. The wheal test was performed by intradermally injecting 10 ug of peptide in 100 ul of saline into anaesthesized rats, measuring the ideally circular wheal response and calculating the area. The in vitro histamine release test was done as described by Karten et al. (4). A suspension of rat mast cells was added to increasing concentrations of peptide and the mixture was incubated for a few minutes followed by centrifugation to collect the histamine in the supernatant. A PIPES (piperazine-N,N'-bis[2-ethanesulfonic acid]) medium buffered at pH 7.4 containing NaCl 119 mM, KCl 5 mM, PIPES 25 mM, NaOH 40 mM, glucose 5.6 mM, CaCl2 1 mM, and 0.1% bovine serum albumin was used. This was designated as PIPES AC. Peptides were dissolved in double distilled H2 O at a concentration of 2 mg/ml and stored at -20° C. They were thawed just prior to testing, diluted in PIPES AC and prewarmed for five minutes at 37° C. Peptides studied were stable to heating at 56° C. for two hours, and to freezing and thawing.
row,Structure (SMILES),Wheal Area [mm^2 /10 μg]
1,CC(=O)N[C@H](Cc1ccc2ccccc2c1)C(=O)N[C@H](Cc1ccc(Cl)cc1)C(=O)N[C@H](Cc1cccnc1)C(=O)N[C@@H](CO)C(=O)N[C@@H](CCCCNC(=O)c1cccnc1)C(=O)N[C@H](C[C@H]1CC[C@H](NC(=O)c2cccnc2)CC1)C(=O)N[C@@H](CC(C)C)C(=O)N[C@@H](CCCCNC(C)C)C(=O)N1CCC[C@H]1C(=O)N[C@H](C)C(N)=O [IBR 25647] (Ac-[d2Nal][dPhe(4-Cl)][d3Pal]SK(Nicotinoyl)[X7]L[Lys(iPr)]P[dA]-NH2),119.5 ± 3.2
2,CC(=O)N[C@H](Cc1ccc2ccccc2c1)C(=O)N[C@H](Cc1ccc(Cl)cc1)C(=O)N[C@H](Cc1cccnc1)C(=O)N[C@@H](CO)C(=O)N[C@@H](CCCCNC(=O)c1cccnc1)C(=O)N[C@H](C[C@H]1CC[C@@H](NC(=O)c2cccnc2)CC1)C(=O)N[C@@H](CC(C)C)C(=O)N[C@@H](CCCCNC(C)C)C(=O)N1CCC[C@H]1C(=O)N[C@H](C)C(N)=O [IBR 25648] (Ac-[d2Nal][dPhe(4-Cl)][d3Pal]SK(Nicotinoyl)[X4]L[Lys(iPr)]P[dA]-NH2),101.8 ± 4.3
3,CC(=O)N[C@H](Cc1ccc2ccccc2c1)C(=O)N[C@H](Cc1ccc(Cl)cc1)C(=O)N[C@H](Cc1cccnc1)C(=O)N[C@@H](CO)C(=O)N[C@@H](CCCCNC(=O)c1ccccn1)C(=O)N[C@H](C[C@H]1CC[C@@H](NC(=O)c2cnccn2)CC1)C(=O)N[C@@H](CC(C)C)C(=O)N[C@@H](CCCCNC(C)C)C(=O)N1CCC[C@H]1C(=O)N[C@H](C)C(N)=O [IBR 25897] (Ac-[d2Nal][dPhe(4-Cl)][d3Pal]SK(Picolinoyl)[dAla(cis-4-NHCOPyz-cHex)]L[Lys(iPr)]P[dA]-NH2),122.8 ± 5.7
4,CC(=O)N[C@H](Cc1ccc2ccccc2c1)C(=O)N[C@H](Cc1ccc(Cl)cc1)C(=O)N[C@H](Cc1cccnc1)C(=O)N[C@@H](CO)C(=O)N[C@@H](CCCCNC(=O)c1ccccn1)C(=O)N[C@H](C[C@H]1CC[C@@H](NC(=O)c2cnccn2)CC1)C(=O)N[C@@H](CC(C)C)C(=O)N[C@@H](CCCNC(C)C)C(=O)N1CCC[C@H]1C(=O)N[C@H](C)C(N)=O [IBR 26181] (Ac-[d2Nal][dPhe(4-Cl)][d3Pal]SK(Picolinoyl)[dAla(cis-4-NHCOPyz-cHex)]L[Orn(iPr)]P[dA]-NH2),101.6 ± 2.2
5,CC(=O)N[C@H](Cc1ccc2ccccc2c1)C(=O)N[C@H](Cc1ccc(Cl)cc1)C(=O)N[C@H](Cc1cccnc1)C(=O)N[C@@H](CO)C(=O)N[C@@H](CCCCNC(=O)c1ccccn1)C(=O)N[C@H](C[C@H]1CC[C@H](NC(=O)c2ccccn2)CC1)C(=O)N[C@@H](CC(C)C)C(=O)N[C@@H](CCCCNC(C)C)C(=O)N1CCC[C@H]1C(=O)N[C@H](C)C(N)=O [IV-3] (Ac-[d2Nal][dPhe(4-Cl)][d3Pal]SK(Picolinoyl)[X6]L[Lys(iPr)]P[dA]-NH2),101.0 ± 3.0
6,CC(=O)N[C@H](Cc1ccc2ccccc2c1)C(=O)N[C@H](Cc1ccc(Cl)cc1)C(=O)N[C@H](Cc1cccnc1)C(=O)N[C@@H](CO)C(=O)N[C@@H](CCCCNC(=O)c1ccccn1)C(=O)N[C@H](C[C@H]1CC[C@@H](NC(=O)c2ccccn2)CC1)C(=O)N[C@@H](CC(C)C)C(=O)N[C@@H](CCCCNC(C)C)C(=O)N1CCC[C@H]1C(=O)N[C@H](C)C(N)=O [IV-4] (Ac-[d2Nal][dPhe(4-Cl)][d3Pal]SK(Picolinoyl)[X1]L[Lys(iPr)]P[dA]-NH2),123.0 ± 5.0
7,CC(=O)N[C@H](Cc1ccc2ccccc2c1)C(=O)N[C@H](Cc1ccc(Cl)cc1)C(=O)N[C@H](Cc1cccnc1)C(=O)N[C@@H](CO)C(=O)N[C@@H](CCCCNC(=O)c1ccccn1)C(=O)N[C@H](C[C@H]1CC[C@H](NC(=O)c2cnccn2)CC1)C(=O)N[C@@H](CC(C)C)C(=O)N[C@@H](CCCCNC(C)C)C(=O)N1CCC[C@H]1C(=O)N[C@H](C)C(N)=O [IV-5] (Ac-[d2Nal][dPhe(4-Cl)][d3Pal]SK(Picolinoyl)[X3]L[Lys(iPr)]P[dA]-NH2),106.3 ± 4.3

# Same assay, conditions: Table I; 10 ug peptide intradermally
row,Structure (SMILES),Wheal [mm^2 /10]
1,CC(=O)N[C@H](Cc1ccc2ccccc2c1)C(=O)N[C@H](Cc1ccc(Cl)cc1)C(=O)N[C@H](Cc1cccnc1)C(=O)N[C@@H](CO)C(=O)N[C@@H](Cc1ccc(O)cc1)C(=O)N[C@H](CCCCNC(=O)c1cccnc1)C(=O)N[C@@H](CC(C)C)C(=O)N[C@@H](CCCNC(=N)N)C(=O)N1CCC[C@H]1C(=O)N[C@H](C)C(N)=O [compound 22396] (Ac-[d2Nal][dPhe(4-Cl)][d3Pal]SY[dK](Nicotinoyl)LRP[dA]-NH2),85
2,CC(=O)N[C@H](Cc1ccc2ccccc2c1)C(=O)N[C@H](Cc1ccc(Cl)cc1)C(=O)N[C@H](Cc1cccnc1)C(=O)N[C@@H](CO)C(=O)N[C@@H](CCCCNC(=O)c1cccnc1)C(=O)N[C@H](Cc1cccnc1)C(=O)N[C@@H](CC(C)C)C(=O)N[C@@H](CCCNC(=N)N)C(=O)N1CCC[C@H]1C(=O)N[C@H](C)C(N)=O [compound 22495] (Ac-[d2Nal][dPhe(4-Cl)][d3Pal]SK(Nicotinoyl)[d3Pal]LRP[dA]-NH2),112
3,CC(=O)N[C@H](Cc1ccc2ccccc2c1)C(=O)N[C@H](Cc1ccc(Cl)cc1)C(=O)N[C@H](Cc1cccnc1)C(=O)N[C@@H](CO)C(=O)N[C@@H](CCCNC(=N)N)C(=O)N[C@H](CCCCNC(=O)c1cccnc1)C(=O)N[C@@H](CC(C)C)C(=O)N[C@@H](CCCNC(=N)N)C(=O)N1CCC[C@H]1C(=O)N[C@H](C)C(N)=O [compound 24199] (Ac-[d2Nal][dPhe(4-Cl)][d3Pal]SR[dK](Nicotinoyl)LRP[dA]-NH2),146.8
4,CC(=O)N[C@H](Cc1ccc2ccccc2c1)C(=O)N[C@H](Cc1ccc(Cl)cc1)C(=O)N[C@H](Cc1cccnc1)C(=O)N[C@@H](CO)C(=O)N[C@@H](Cc1ccc(O)cc1)C(=O)N[C@H](CCCCNC(=O)c1cccnc1)C(=O)N[C@@H](CC(C)C)C(=O)N[C@@H](CCCCNC(C)C)C(=O)N1CCC[C@H]1C(=O)N[C@H](C)C(N)=O [compound 24315] (Ac-[d2Nal][dPhe(4-Cl)][d3Pal]SY[dK](Nicotinoyl)L[Lys(iPr)]P[dA]-NH2),79.0 ± 9.2
5,CC(=O)N[C@H](Cc1ccc2ccccc2c1)C(=O)N[C@H](Cc1ccc(Cl)cc1)C(=O)N[C@H](Cc1cccnc1)C(=O)N[C@@H](CO)C(=O)N[C@@H](Cc1ccc(O)cc1)C(=O)N[C@H](CCCCNC(=O)c1cccnc1)C(=O)N[C@@H](CC(C)C)C(=O)N[C@@H](CCCCN(C)C)C(=O)N1CCC[C@H]1C(=O)N[C@H](C)C(N)=O [compound 24443] (Ac-[d2Nal][dPhe(4-Cl)][d3Pal]SY[dK](Nicotinoyl)L[Lys(Me2)]P[dA]-NH2),122.7
6,CC(=O)N[C@H](Cc1ccc2ccccc2c1)C(=O)N[C@H](Cc1ccc(Cl)cc1)C(=O)N[C@H](Cc1ccc(O)cc1)C(=O)N[C@@H](CO)C(=O)N[C@@H](CCCNC(=N)N)C(=O)N[C@H](CCCCNC(=O)c1cccnc1)C(=O)N[C@@H](CC(C)C)C(=O)N[C@@H](CCCNC(=N)N)C(=O)N1CCC[C@H]1C(=O)N[C@H](C)C(N)=O [compound 24446] (Ac-[d2Nal][dPhe(4-Cl)][dY]SR[dK](Nicotinoyl)LRP[dA]-NH2),113.2
7,CC(=O)N[C@H](Cc1ccc2ccccc2c1)C(=O)N[C@H](Cc1ccc(Cl)cc1)C(=O)N[C@H](Cc1cccnc1)C(=O)N[C@@H](CO)C(=O)N[C@@H](Cc1ccc(O)cc1)C(=O)N[C@H](CCCCNC(=O)c1cccnc1)C(=O)N[C@@H](CC(C)C)C(=O)N[C@@H](CCCCNC(=O)c1cccnc1)C(=O)N1CCC[C@H]1C(=O)N[C@H](C)C(N)=O [compound 24540] (Ac-[d2Nal][dPhe(4-Cl)][d3Pal]SY[dK](Nicotinoyl)LK(Nicotinoyl)P[dA]-NH2),82.6 ± 2.8
8,CC(=O)N[C@H](Cc1ccc2ccccc2c1)C(=O)N[C@H](Cc1ccc(Cl)cc1)C(=O)N[C@H](Cc1cccnc1)C(=O)N[C@@H](CO)C(=O)N[C@@H](CCCCNC(C)C)C(=O)N[C@H](CCCCNC(=O)c1cccnc1)C(=O)N[C@@H](CC(C)C)C(=O)N[C@@H](CCCCNC(C)C)C(=O)N1CCC[C@H]1C(=O)N[C@H](C)C(N)=O [compound 24543] (Ac-[d2Nal][dPhe(4-Cl)][d3Pal]S[Lys(iPr)][dK](Nicotinoyl)L[Lys(iPr)]P[dA]-NH2),132.7

# Same assay, conditions: Table XIV and text, unit not given
row,Structure (SMILES),Wheal (wheal response)
1,CC[C@@H](C)[C@H](NC(=O)[C@@H](CCCCNC(=O)c1ccccn1)NC(=O)[C@H](CCCCNC(=O)c1ccccn1)NC(=O)[C@H](CO)NC(=O)[C@@H](Cc1cccnc1)NC(=O)[C@@H](Cc1ccc(Cl)cc1)NC(=O)[C@@H](Cc1ccc2ccccc2c1)NC(C)=O)C(=O)N[C@@H](CCCCNC(C)C)C(=O)N1CCC[C@H]1C(=O)N[C@H](C)C(N)=O [IBR 25936] (Ac-[d2Nal][dPhe(4-Cl)][d3Pal]SK(Picolinoyl)[dK](Picolinoyl)[aIle][Lys(iPr)]P[dA]-NH2),97.9±2.9
2,CC[C@@H](C)[C@H](NC(=O)[C@@H](CCCCNC(=O)c1ccccn1)NC(=O)[C@H](CCCCNC(=O)c1ccccn1)NC(=O)[C@H](CO)NC(=O)[C@@H](Cc1cccnc1)NC(=O)[C@@H](Cc1ccc(Cl)cc1)NC(=O)[C@@H](Cc1ccc2ccccc2c1)NC(C)=O)C(=O)N[C@@H](CCCNC(C)C)C(=O)N1CCC[C@H]1C(=O)N[C@H](C)C(N)=O [IBR 26178] (Ac-[d2Nal][dPhe(4-Cl)][d3Pal]SK(Picolinoyl)[dK](Picolinoyl)[aIle][Orn(iPr)]P[dA]-NH2),78.6±4.5
